We go through 16 molecules from PubChem BioAssay AID328 (DTP/NCI, 2004).

“And” between values parts separate entries of the source, which are not always exact repeats. Equal entries are not always repeated. Toxic doses and inconclusive results are not listed.

The test concerns BDF1 mice, P388 leukemia ip, median survival T/C. The experiment in a line: NCI In Vivo Anticancer Drug Screen. Data for tumor model P388 Leukemia (intraperitoneal) in B6D2F1 (BDF1) mice. As to conditions: endpoint: median survival time, higher = longer survival. An outline of the steps: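 Steps: implant the tumour, treat one group with compound and another with vehicle, record survival, then divide treated by control.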

The mark [1] stands for this setting: dose: 100.0 mg/kg/injection, schedule: Q04DX003 (ip), vehicle: saline with Tween-80.
[2] abbreviates: dose: 200.0 mg/kg/injection, schedule: Q04DX003 (ip), vehicle: saline with Tween-80.
Where [3] appears, read: dose: 400.0 mg/kg/injection, schedule: Q04DX003 (ip), vehicle: saline with Tween-80.
Where [4] appears, read: dose: 25.0 mg/kg/injection, schedule: Q01DX009 (ip), vehicle: saline with Tween-80.
[5] abbreviates: dose: 50.0 mg/kg/injection, schedule: Q01DX009 (ip), vehicle: saline with Tween-80.
[6] abbreviates: dose: 100.0 mg/kg/injection, schedule: Q01DX009 (ip), vehicle: saline with Tween-80.
Setting [7] is: dose: 200.0 mg/kg/injection, schedule: Q01DX009 (ip), vehicle: saline with Tween-80.
[8] abbreviates: dose: 400.0 mg/kg/injection, schedule: Q01DX009 (ip), vehicle: saline with Tween-80.

Regarding `Fc1ccc(-c2n[nH]c3c2CCCc2ccccc2-3)cc1`, the T/C under setting [1] is 114 % of control, the T/C under setting [2] was 114 % of control and the T/C under setting [3] is 123 % of control.
As for `COCC12CCC(OC)C34C5CC6(O)C(OC)CC(OC(C)=O)(C5C6OC(=O)c5ccccc5)C(C(OC)C13)C4N(C)C2` (stereo not drawn), the T/C by setting is: (dose: 0.13 mg/kg/injection, schedule: Q01DX009 (ip), vehicle: Klucel (hydroxypropylcellulose) (HPC)) 93 % of control; (dose: 0.25 mg/kg/injection, schedule: Q01DX009 (ip), vehicle: Klucel (hydroxypropylcellulose) (HPC)) 88 % of control; (dose: 0.5 mg/kg/injection, schedule: Q01DX009 (ip), vehicle: Klucel (hydroxypropylcellulose) (HPC)) 102 % of control; (dose: 1.0 mg/kg/injection, schedule: Q01DX009 (ip), vehicle: Klucel (hydroxypropylcellulose) (HPC)) 102 % of control.
Regarding `CC(C)COC(=O)NCCF`, the T/C reads like this: (dose: 6.25 mg/kg/injection, schedule: Q01DX009 (ip), vehicle: saline with Tween-80) 107 % of control; (dose: 12.5 mg/kg/injection, schedule: Q01DX009 (ip), vehicle: saline with Tween-80) 112 % of control; under setting [4], 120 % of control.
As for `S=c1[nH]nc(Nc2ccccc2Cl)s1`, the T/C runs as follows: under setting [5], 100 % of control; under setting [6], 90 % of control; under setting [7], 100 % of control.
As for `CN(C)C1CCc2ccccc2C1OC(=O)/C=C/c1ccccc1` (stereo not drawn), the T/C reads like this: under setting [4], 100 % of control; under setting [5], 102 % of control; under setting [6], 102 % of control.
As to `CC(C)(C)N(O)N=O.CC(C)(C)N(O)N=O.[Cu]`, the T/C runs as follows: (dose: 1.56 mg/kg/injection, schedule: Q01DX001 (ip), vehicle: saline) 107 % of control; (dose: 3.13 mg/kg/injection, schedule: Q01DX001 (ip), vehicle: saline) 109 % of control; (dose: 6.25 mg/kg/injection, schedule: Q01DX001 (ip), vehicle: saline) 106 % of control.
Regarding `CC1CCC(C)N1P(=O)(N1CC1)N1CC1` (stereo not drawn), the T/C reads like this: (dose: 16.5 mg/kg/injection, schedule: Q04DX003 (ip), vehicle: saline with Tween-80) 168 % of control and 183 % of control; (dose: 25.0 mg/kg/injection, schedule: Q04DX003 (ip), vehicle: saline with Tween-80) 120 % of control and 218 % of control.
As to `COc1cccc2c1C(=N)c1c(O)c3c(c(O)c1C2=O)C[C@@](O)(C(C)=O)C[C@@H]3OC1CC(N)C(O)C(C)O1` (stereo partly drawn), the T/C was 177 % of control (dose: 3.46 mg/kg/injection, schedule: Q04DX003 (ip), vehicle: saline); 186 % of control (dose: 5.76 mg/kg/injection, schedule: Q04DX003 (ip), vehicle: saline); 180 % of control (dose: 9.6 mg/kg/injection, schedule: Q04DX003 (ip), vehicle: saline).
Consider `COc1cc([N+](=O)[O-])c(C)cc1NC(=O)c1ccc(OC)c(OC)c1`, for which the T/C is 100 % of control (dose: 0.78 mg/kg/injection, schedule: Q01DX009 (ip), vehicle: saline); 115 % of control (dose: 1.56 mg/kg/injection, schedule: Q01DX009 (ip), vehicle: saline); 88 % of control (dose: 3.12 mg/kg/injection, schedule: Q01DX009 (ip), vehicle: saline); 86 % of control (dose: 6.25 mg/kg/injection, schedule: Q01DX009 (ip), vehicle: saline).
As to `CC1CN1P(=O)(OCCC#N)N1CC1C` (stereo not drawn), the T/C is, setting by setting: (dose: 25.0 mg/kg/injection, schedule: Q01DX009 (ip), vehicle: saline) 115 % of control; (dose: 50.0 mg/kg/injection, schedule: Q01DX009 (ip), vehicle: saline) 97 % of control; (dose: 100.0 mg/kg/injection, schedule: Q04DX003 (ip), vehicle: other) 163 % of control; (dose: 150.0 mg/kg/injection, schedule: Q01DX009 (ip), vehicle: other) 170 % of control; (dose: 200.0 mg/kg/injection, schedule: Q01DX009 (ip), vehicle: saline) 160 % of control and 203 % of control; (dose: 200.0 mg/kg/injection, schedule: Q04DX003 (ip), vehicle: other) 227 % of control.
Take `CN1c2ccc3ccccc3c2Sc2ccc3ccccc3c21`: the T/C was 113 % of control under setting [6]; 100 % of control under setting [1]; 104 % of control under setting [7]; 95 % of control under setting [2]; 104 % of control under setting [8]; 90 % of control under setting [3].
With `ICC1(CI)CCCCC1`, the T/C was 100 % of control (dose: 100.0 mg/kg/injection, schedule: Q01DX001 (ip), vehicle: saline with Tween-80) and 108 % of control (dose: 200.0 mg/kg/injection, schedule: Q01DX001 (ip), vehicle: saline with Tween-80).
As for `CNC(=S)NN`, the T/C (dose: 100.0 mg/kg/injection, schedule: Q04DX003 (ip), vehicle: saline) was 100 % of control; the T/C (dose: 200.0 mg/kg/injection, schedule: Q01DX001 (ip), vehicle: saline) is 100 % of control; the T/C (dose: 200.0 mg/kg/injection, schedule: Q04DX003 (ip), vehicle: saline) is 90 % of control; the T/C (dose: 400.0 mg/kg/injection, schedule: Q04DX003 (ip), vehicle: saline) was 100 % of control.
With `O=C1c2ccccc2-c2cc3ccccc3cc21`, the T/C is, setting by setting: (dose: 75.0 mg/kg/injection, schedule: Q04DX003 (ip), vehicle: saline sonified) 100 % of control; (dose: 150.0 mg/kg/injection, schedule: Q04DX003 (ip), vehicle: saline sonified) 110 % of control; (dose: 300.0 mg/kg/injection, schedule: Q04DX003 (ip), vehicle: saline sonified) 110 % of control.
Consider `CCCCCCC(O)CCCCCCCCCCC(=O)O` (stereo not drawn), for which the T/C reads like this: under setting [6], 95 % of control; under setting [7], 95 % of control; under setting [8], 100 % of control.
On to `CCOc1ccc(N2C(=O)CSC2=S)cc1`, for which the T/C was 104 % of control under setting [5]; 110 % of control (dose: 50.0 mg/kg/injection, schedule: Q04DX003 (ip), vehicle: saline with Tween-80); 100 % of control under setting [6]; 100 % of control under setting [1]; 95 % of control under setting [7]; 100 % of control under setting [2].
